Data: patent publication US20260355318A1, “MOLECULAR MACHINES FOR TREATMENT OF CANCER, FUNGAL INFECTIONS, OR BACTERIAL INFECTIONS” (priority 2022, published 2026)

Columns and labels:
[1] = test system: B. cepacia; experiment: MIC, B. cepacia; type: cell-based; conditions: Burkholderia cepacia, read-out: MIC of MM
Method: The appropriate volume of an MM stock at 8 mM necessary to achieve a concentration ranging from 0.3125 to 40 μM was pipetted into a 2 mL microcentrifuge tube to which 1 mL of cell suspension prepared as previously described was added. Corresponding negative controls (DMSO only) were prepared in the same way. The mixture was gently mixed by pipetting and incubated in the dark at 30 or 37 ° C, depending on the strain, for 30 min with agitation (220 rpm). Afterward, MM- or DMSO-treated cells were dispensed in one well of a 24-well plate positioned in the center of the light beam (405 nm LED Light, Prizmatix, UHP—F-5-405) placed at the appropriate distance necessary to achieve the desired light intensity of 304 mW cm-2, 146 mW cm2 or 87 mW cm2, as measured with a handheld digital power meter console coupled to an S415C thermal power sensor head (Thorlabs, Newton, MA, USA). The temperature during irradiation was monitored using a thermocouple probe (Model SC-TT-K-30-36-PP; Omega Engineering, Inc., Stanford, CT, USA). Samples were agitated during irradiation. Dark controls were prepared as previously described except that no irradiation was provided. […]

[2] = test system: C. albicans; experiment: MIC, visible-light-activated MMs and conventional antifungals, C. albicans; type: cell-based, Candida albicans (ATCC 18804); conditions: Candida albicans, read-out: MIC of MM
How it was run: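 C. albicans suspensions (~10^4 CFU/mL in saline, CLSI) incubated 30 min in the dark with MMs, then irradiated with stirring at 405 nm, 292 mW cm^−2 for 5 min (87.6 J cm^−2). Cells then grown in MOPS-buffered RPMI 1640 (pH 7.0) at 30 °C for 48 h; MIC is lowest concentration with no visible growth; conventional antifungals tested likewise.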

[3] = test system: P. aeruginosa; experiment: MIC, P. aeruginosa; type: cell-based, Pseudomonas aeruginosa; conditions: Pseudomonas aeruginosa, read-out: MIC of MM
Method: The appropriate volume of an MM stock at 8 mM necessary to achieve a concentration ranging from 0.3125 to 40 μM was pipetted into a 2 mL microcentrifuge tube to which 1 mL of cell suspension prepared as previously described was added. Corresponding negative controls (DMSO only) were prepared in the same way. The mixture was gently mixed by pipetting and incubated in the dark at 30 or 37 ° C, depending on the strain, for 30 min with agitation (220 rpm). Afterward, MM- or DMSO-treated cells were dispensed in one well of a 24-well plate positioned in the center of the light beam (405 nm LED Light, Prizmatix, UHP—F-5-405) placed at the appropriate distance necessary to achieve the desired light intensity of 304 mW cm-2, 146 mW cm2 or 87 mW cm2, as measured with a handheld digital power meter console coupled to an S415C thermal power sensor head (Thorlabs, Newton, MA, USA). The temperature during irradiation was monitored using a thermocouple probe (Model SC-TT-K-30-36-PP; Omega Engineering, Inc., Stanford, CT, USA). Samples were agitated during irradiation. Dark controls were prepared as previously described except that no irradiation was provided.
For MIC determination, samples treated with a range of concentrations of the different MM, as described above and were irradiated one at a time for 5 min at 146 mW cm^−2 (43.8 J cm^−2), after which irradiated aliquots were collected and inoculated into 1 mL MHB in a 2 mL microcentrifuge tube. Samples were incubated overnight at 30 or 37 ° C, depending on the strain, without agitation. Corresponding non-irradiated samples and negative controls (without bacteria) were also included. The following day, cultures were inspected for growth and the MIC was identified. The experimental procedure used to determine the MIC of visible light-activated MMs is schematically depicted in FIG. 26.

[4] = test system: persister cells of E. coli; experiment: Persister eradication, E. coli; type: cell-based, Escherichia coli; conditions: 1×MIC, 405 nm
Method: Persister cells of E. coli were prepared by adding ampicillin (100 μg mL^−1) to exponential-phase cells (OD600 of ≈0.8) followed by continuous agitation for another 3 b, as previously described (Keren et al., 2004). In the case of S. aureus, almost all stationary-phase are considered to be persistent (Keren et al., 2004). S. aureus cells were grown at 37 ° C and 220 rpm in LB broth to an OD600 of 0.3. Cells were then diluted 1:1000 in 25 mL LB and grown for 16 h at 37 ° C and 220 rpm in 250 mL flasks. […] At specified time points (0, 1, 2, 3, 4 and 5, 10 and 15 min), 50-μL aliquots were removed, serially diluted and spot-plated onto LB agar plates to determine colony-forming units per mL (CFU mL^−1). Only dilutions that yielded 10-100 colonies were counted. Results were expressed as log (N/NO) whereby N is the CFU mL^−1 at each irradiation time point and NO is the initial CFU mL^−1 of the corresponding sample. […].

[5] = test system: S. aureus; experiment: MIC, S. aureus; type: cell-based, Staphylococcus aureus; conditions: for MIC of MM: S. aureus; for MIC: Staphylococcus aureus, read-out: MIC of MM
How it was run: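 Cell suspensions were exposed to compound at 0.3125-40 μM for 30 min in the dark, with agitation, at 30 or 37 °C depending on strain. Each sample was then irradiated with 405 nm light at 146 mW cm^−2 for 5 min (43.8 J cm^−2), inoculated into MHB and incubated overnight. MIC was read as the lowest concentration without visible growth, alongside non-irradiated controls.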

Structure (SMILES) | MIC [1] [µM] | MIC [2] [µM] | MIC [3] [µM] | time to reduce persister cells to limit of detection [4] [min] | MIC of MM ([5]; Table 9, 405 nm light 43.8 J cm^−2) | MIC [5] [µM] | MIC of MM ([5]; 405 nm light) [µM]
C[C@@H]1Cc2ccc3ccccc3c2/C1=C1\c2ccccc2Sc2cc(NCCN)ccc21 (racemic) [MM 6, N^1-(9-(2-methyl-2,3-dihydro-1H-cyclopenta[a]naphthalen-1-ylidene)-9H-thioxanthen-3-yl)ethane-1,2-diamine] | 10 | ≤ 5 | 0.625 | 5 | 0.078 | 0.078 | 
C[C@@H]1Cc2ccc3ccccc3c2/C1=C1\c2ccccc2Sc2cc(NCCN(C)C)ccc21 [MM 1, N^1N^1-dimethyl-N^2-(9-(2-methyl-2,3-dihydro-1H-cyclopenta[a]naphthalen-1-ylidene)-9H-thioxanthen-3-yl) ethane-1,2-diamine] | 10 | ≤ 5 | 0.625 | 10 |  | 0.156 | 0.156
